Reference: ChEMBL document CHEMBL4311969, “Polygala tenuifolia-Acori tatarinowii herbal pair as an inspiration for substituted cinnamic α-asaronol esters: Design, synthesis, anticonvulsant activity, and inhibition of lactate dehydrogenase study” (Eur J Med Chem, 2019)
“And” between values parts separate entries of the source, which are not always exact repeats. Equal values may be shown once. The source made the active and inactive calls. The rule behind the calls is not given here.

Legend:
[1] = test system: Mus musculus; assay: Anticonvulsant activity in Kunming mouse assessed as reduction in ScPTZ-induced clonic seizure at 300 mg/kg, ip administered 0.5 hrs before ScPTZ stimulation relative to control; assay type: functional; parameters: scale not given: the % may be the effect or the level left
[2] = Tmax in Sprague-Dawley rat at 50 mg/kg, po measured upto 480 mins by LC-MS/MS analysis; assay type: ADME, organism-based; conditions: in vivo
[3] = AUC in Sprague-Dawley rat at 20 mg/kg, po measured upto 480 mins by LC-MS/MS analysis; assay type: ADME, organism-based; parameters: time < 8 hr, dose 20 mg/kg, route oral; conditions: in vivo
[4] = Drug uptake in Sprague-Dawley rat heart at 50 mg/kg, po; assay type: ADME, organism-based; conditions: in vivo
[5] = test system: Mus musculus; assay: Anticonvulsant activity in Kunming mouse assessed as reduction in ScPTZ-induced clonic seizure at 100 mg/kg, ip administered 0.5 hrs before ScPTZ stimulation relative to control; assay type: functional; parameters: scale not given: the % may be the effect or the level left
[6] = Tmax in Sprague-Dawley rat brain at 50 mg/kg, po; assay type: ADME, organism-based
[7] = Tmax in Sprague-Dawley rat kidney at 50 mg/kg, po; assay type: ADME, organism-based
[8] = test system: Mus musculus; assay: Anticonvulsant activity in Kunming mouse assessed as MES-induced hind limb extension at 50 mg/kg, ip administered 0.5 and 2 hrs before MES stimulation relative to control; assay type: functional
[9] = Drug uptake in Sprague-Dawley rat lungs at 50 mg/kg, po; assay type: ADME, organism-based, Lung; conditions: in vivo
[10] = Cmax in Sprague-Dawley rat at 20 mg/kg, po measured upto 480 mins by LC-MS/MS analysis; assay type: ADME, organism-based; parameters: dose 20 mg/kg, route oral; conditions: in vivo
[11] = Drug uptake in Sprague-Dawley rat spleen at 50 mg/kg, po; assay type: ADME, organism-based; conditions: in vivo
[12] = Oral bioavailability in Sprague-Dawley rat at 100 mg/kg measured upto 480 mins by LC-MS/MS analysis; assay type: ADME, organism-based; conditions: in vivo
[13] = Half life in Sprague-Dawley rat at 20 mg/kg, iv measured upto 480 mins by LC-MS/MS analysis; assay type: ADME, organism-based; conditions: in vivo
[14] = Neurotoxicity against Kunming mouse assessed as time remained in rod at 100 mg/kg, ip administered 0.5 to 2 hrs by rotarod test; assay type: toxicity, organism-based; conditions: in vivo
[15] = species: Homo sapiens; assay: Inhibition of human LDH5 at 0.5 mM using sodium pyruvate as substrate measured for 60 sec for every 5 mins by LC/MS-MS analysis
[16] = biological target: T1, GABA-A receptor; alpha-1/beta-2/gamma-2 (Homo sapiens, UniProt P14867+P18507+P47870); assay: Agonist activity at GABA alpha1beta2gamma2 receptor in human HEK293T at -50 mV holding potential by whole cell voltage clamp assay; assay type: protein-complex assay
T1 sequence (P14867 whole entry): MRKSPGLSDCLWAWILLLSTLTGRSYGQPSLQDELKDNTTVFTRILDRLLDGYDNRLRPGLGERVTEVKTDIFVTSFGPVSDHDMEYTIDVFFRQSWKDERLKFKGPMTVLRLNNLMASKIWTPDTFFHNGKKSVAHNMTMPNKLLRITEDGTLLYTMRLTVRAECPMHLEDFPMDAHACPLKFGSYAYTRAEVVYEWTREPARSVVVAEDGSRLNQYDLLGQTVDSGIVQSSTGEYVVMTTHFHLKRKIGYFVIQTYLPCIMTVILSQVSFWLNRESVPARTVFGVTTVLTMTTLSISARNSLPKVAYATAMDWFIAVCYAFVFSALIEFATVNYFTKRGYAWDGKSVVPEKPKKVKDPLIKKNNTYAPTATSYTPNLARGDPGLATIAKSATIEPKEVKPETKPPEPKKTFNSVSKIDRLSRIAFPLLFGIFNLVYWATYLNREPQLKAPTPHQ
T1 sequence (P47870 whole entry): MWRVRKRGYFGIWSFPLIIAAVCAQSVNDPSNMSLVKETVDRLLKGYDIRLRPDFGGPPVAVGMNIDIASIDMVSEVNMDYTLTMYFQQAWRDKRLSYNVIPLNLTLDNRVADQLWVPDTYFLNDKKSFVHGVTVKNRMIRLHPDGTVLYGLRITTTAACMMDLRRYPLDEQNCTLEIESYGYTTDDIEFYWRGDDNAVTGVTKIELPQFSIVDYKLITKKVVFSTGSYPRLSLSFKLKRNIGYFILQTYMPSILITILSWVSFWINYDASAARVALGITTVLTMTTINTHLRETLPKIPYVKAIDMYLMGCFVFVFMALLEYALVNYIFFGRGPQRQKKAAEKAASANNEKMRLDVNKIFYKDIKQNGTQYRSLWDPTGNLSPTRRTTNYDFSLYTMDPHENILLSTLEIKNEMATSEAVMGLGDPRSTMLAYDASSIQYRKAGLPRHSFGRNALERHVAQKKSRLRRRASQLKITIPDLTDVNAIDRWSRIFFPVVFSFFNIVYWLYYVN
T1 sequence (P18507 whole entry): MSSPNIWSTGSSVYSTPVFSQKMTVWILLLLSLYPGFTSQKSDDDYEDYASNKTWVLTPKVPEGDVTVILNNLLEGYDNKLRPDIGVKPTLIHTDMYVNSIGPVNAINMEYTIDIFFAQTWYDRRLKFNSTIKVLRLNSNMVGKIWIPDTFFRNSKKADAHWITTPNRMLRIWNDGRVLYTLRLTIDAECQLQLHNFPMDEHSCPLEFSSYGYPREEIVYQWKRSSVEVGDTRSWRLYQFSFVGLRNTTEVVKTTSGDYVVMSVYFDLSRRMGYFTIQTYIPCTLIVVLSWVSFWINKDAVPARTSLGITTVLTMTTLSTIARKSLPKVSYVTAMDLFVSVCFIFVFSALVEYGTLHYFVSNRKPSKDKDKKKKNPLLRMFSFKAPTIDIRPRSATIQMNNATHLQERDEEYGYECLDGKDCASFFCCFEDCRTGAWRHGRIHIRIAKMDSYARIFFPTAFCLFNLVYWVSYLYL

[17] = Neurotoxicity against ip dosed Kunming mouse assessed as time remained in rod measured at 0.5 hrs by rotarod test; assay type: toxicity, organism-based; conditions: in vivo
[18] = Cmax in Sprague-Dawley rat at 100 mg/kg, po measured upto 480 mins by LC-MS/MS analysis; assay type: ADME, organism-based; parameters: dose 100 mg/kg, route oral; conditions: in vivo
[19] = species: Homo sapiens; assay: Inhibition of human LDH5 at 0.5 mM using sodium pyruvate as substrate by UV-VIS spectrophotometry method relative to control
[20] = Protective index, ratio of TD50 for neurotoxicity against ip dosed Kunming mouse assessed as time remained in rod measured at 0.5 hrs by rotarod test to ED50 for anticonvulsant activity in ip dosed Kunming mouse assessed as reduction in ScPTZ-induced seizure administered 0.5 hrs before ScPTZ stimulation; assay type: toxicity, organism-based; conditions: in vivo, read-out: PI
[21] = Noncompetitive inhibition of human LDH5 at 0.5 mM using sodium pyruvate as substrate by UV-VIS spectrophotometry method based Lineweaver-Burk plot analysis
[22] = test system: Mus musculus; assay: Anticonvulsant activity in Kunming mouse assessed as reduction in ScPTZ-induced seizure at 100 mg/kg, ip administered 0.5 hrs before ScPTZ stimulation relative to control; assay type: functional; parameters: scale not given: the % may be the effect or the level left
[23] = test system: Mus musculus; assay: Potency index, ratio of ED50 of carbamazepine to ED50 of compound anticonvulsant activity in ip dosed Kunming mouse assessed as MES-induced hind limb extension administered 0.5 hrs before MES stimulation; assay type: functional
[24] = test system: Mus musculus; assay: Anticonvulsant activity in Kunming mouse assessed as MES-induced hind limb extension at 100 mg/kg, ip administered 3 hrs before MES stimulation; assay type: functional, organism-based
[25] = test system: Mus musculus; assay: Potency index, ratio of ED50 of valproic acid to ED50 of compound anticonvulsant activity in ip dosed Kunming mouse assessed as MES-induced hind limb extension administered 0.5 hrs before MES stimulation; assay type: functional

SMILES | Activity [1] [%] | Tmax [2] [min] | AUC at 8 h [3] [ng·h/mL] | Activity [5] [%] | Activity [8] [%] | Cmax [10] [ng/mL] | bioavailability [12] [%] | half-life [13] [min] | Activity [14] | inhibition [15] [%] | TD50 at 0.5 h [17] | Cmax [18] [ng/mL] | inhibition [19] [%] | selectivity ratio at 0.5 h [20] | further results
COc1cc(OC)c(OC)cc1/C=C/COC(=O)/C=C/c1c(OC)cc(OC)c(OC)c1OC | 100 | 38.7 | 1300 | 100 | 75 | 980 | 36.5 | 22.8 | Non-Toxic | 27 | 1970 µmol/kg and 936 mg/kg | 3980 | 27 | 6.1 | Drug uptake [4]: Active; Tmax [6]: 60 min; Tmax [7]: 60 min; Drug uptake [9]: Active; Drug uptake [11]: Active; EC50 [16]: 46.3 µM
COc1cc(OC)c(OC)cc1/C=C/COC(=O)/C=C/c1cc(OC)c(OC)c(OC)c1OC | 100 | 35.6 | 1210 | 100 | 75 | 880 | 34.8 | 19.7 | Non-Toxic | 15 | > 2110 µmol/kg and > 1000 mg/kg | 3770 | 15 | > 6.4 | Ki [21]: 4.84 µM; Activity [22]: 100%; Ratio ED50 [23]: 1.17; Activity [24]: Active; Ratio ED50 [25]: 23.1
